From patent US9101613B2, “Methods for treating neurological disease” (Neurim Pharmaceuticals (1991) Ltd., priority 2006, dated 2015) come the findings set out here.

The target in data set [1] is T1, MT-3 receptor (Mesocricetus auratus, UniProt A0ABM2YAB8).
T1 construct: from tissue; host or cells: hamster brain membranes
T1 sequence (A0ABM2YAB8 1-231): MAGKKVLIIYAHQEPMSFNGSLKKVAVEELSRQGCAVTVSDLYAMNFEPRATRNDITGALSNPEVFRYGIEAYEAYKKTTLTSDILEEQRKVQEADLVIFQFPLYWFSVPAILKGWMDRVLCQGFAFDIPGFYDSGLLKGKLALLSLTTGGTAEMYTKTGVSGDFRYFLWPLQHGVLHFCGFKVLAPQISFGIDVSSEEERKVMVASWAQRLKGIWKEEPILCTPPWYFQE
The experiment in a line: 125I-melatonin binding in hamster brain membranes, MT-3. How it is done:
Aliquots of suspended membranes of human recombinant CHP-K1 (Chinese hamster ovary) cells stably expressing human melatonin-1 or melatonin-2 (MT-1 or MT-2) receptors or of hamster brain (MT-3) were incubated at 25° C. with 0.05 nM ^125I-melatonin in buffer (25 mM HEPES, pH 7.4, 5 mM MgCl2, 1 mM CaCl2, 0.5% BSA) or with 0.1 nM for MT-3 alone or in the presence of 1 nM, 10 nM, 0.1 μM, 1 μM and 10 μM of test substances N-[2-(5-methoxy-indol-3-yl)-ethyl]-commenamide, N-[2-(5-methoxy-indol-3-yl)-ethyl]-comanilamide, N-[2-(5-methoxy-indol-3-yl)-ethyl]-coumalylamide, N-[2-(5-methoxy-indol-3-yl)-ethyl]-2-methoxy-commenamide, N-[2-(5-methoxy-indol-3-yl)-ethyl]-chelidonamide, O-[2-(5-methoxy-indol-3-yl)-ethyl]-comenic ester, N-[2-(5-methoxy-indol-3-yl)-ethyl]-2-Pyrone-6-carboxamide and N-[2-(2-bromo-5-methoxy-indol-3-yl)-ethyl]-coumalylamide for 3 hours for MT-1, 4 hours for MT-2 and 30 min for MT-3. The binding reaction was terminated and the membranes were washed with 4 ml of ice-cold HEPES buffer by vacuum filtration. Membranes were then collected, and the filters containing the bound ^125I-melatonin were assayed for the amount of radioactivity in a […]. Non-specific binding was evaluated using a reaction with 1 μM 6-chloromelatonin (MT-1 and MT-2) or 30 μM melatonin (MT-3).

The test system of data set [2] is CD1 mice. The experiment in a line: Motimeter assay (motor activity and rearing). The format is in vivo. Particulars: 100 mg/kg i.p. How it is done: Mice were starved for 16 hrs before treatment. Male CD1 mice, weighing 25-30 g, were treated intraperitoneally with melatonin, N-[2-(5-methoxy-indol-3-yl)-ethyl]-comanilamide or N-[2-(5-methoxy-indol-3-yl)-ethyl]-commenamide in a dose of 100 mg/kg. The horizontal (i.e. locomotion) and vertical (i.e. rearing) movements were measured for 5 minutes two times, 30 and 60 min after treatment. Eight mice/group were used. The 4-channel activity meter is a square-shaped frame containing transparent infra-red permeable acrylic cages. The frames feature two pairs of light-beam strips for measuring horizontal movements, and two pairs for measuring rearing. Each strip is equipped with 16 infra-red sensors.

Data set [3] relates to 3T3-L1 adipocytes. The experiment in a line: 2-[3H]-deoxy-d-glucose uptake in FFA-treated 3T3-L1 adipocyte model. The format is cell-based. How it is done:
Adipocytes were glucose-starved for 1 h in Hepes-salt buffer containing 2% FFA-free BSA. FFA (free fatty acids) were then added to the cells at the indicated concentrations (300 μM) for the indicated times (3 h). 10 min before the end of the FFA treatment, the cells were stimulated with insulin (20 nM)/melatonin (10 nM)/test compounds (10 nM) at 37° C. 2-[^3H]-deoxy-d-glucose at 1 μCi/mL and 0.1 mM unlabeled 2-deoxyglucose in KRP-HEPES buffer was added and cells were incubated for 10 min at room temperature. Non-specific glucose uptake was measured by parallel incubations in the presence of 10 μM cytochalasin B, which blocks transporter-mediated glucose uptake, and was subtracted from total uptake in each assay. Cells were then washed three times with ice-cold phosphate buffered saline (PBS) and solubilized in 1M NaOH for 20 minutes. The sample was then counted using a scintillation counter. 2-[^3H]-deoxy-d-glucose uptake was assayed in triplicates for each condition in at least 3 independent experiments. 2-[^3H]-deoxy-d-glucose uptake (counts per minute-cpm) are presented as mean+SE of triplicates in a representative experiment or results of three independent experiments. ANOVA test was used with significance of P<0.05 (Table 7).

Data set [4] concerns PC12 cells. Briefly: Glutamate-induced loss of cell viability in PC12 cells (MTT). Particulars: 1 uM, without glutamate. The format is cell-based. How it is done:
For the cell viability assays, 24 h after seeding in 96-well plates, the cultures were pretreated with N-[2-(5-methoxy-indol-3-yl)-ethyl]-comanilamide (100 pm, 1 nM, 10 nM, 100 nM, 1 uM and 10 uM) or melatonin (1 uM) for 0 h before exposure to 4 mM glutamate. After 24 h incubation, cellular viability was evaluated by MTT assay.
PC12 cell viability was determined by the conventional 3-(4,5-dimethylthiazol-2-yl)-2,5-diphenyltetrazolium bromide (MTT) assay. PC12 cells were treated with MTT solution (0.5 mg/ml) and were then incubated at 37° C. for 4 hrs. The medium was removed and 150 μl DMSO/well was added to dissolve formazan. The absorbance at 570 nm was recorded using an enzyme-linked immunosorbent assay reader and the percentage of cell growth inhibition was calculated as follows: Cell viability (%)=A570 (treatment)/A570 (control)×100.

In the case of `COc1ccc2[nH]cc(CCNC(C)=O)c2c1` [Melatonin, N-acetyl-5-methoxy-tryptamine, reference compound], the IC50 in data set [1] (0.1 nM 125I-melatonin, 30 min, read-out: MT-3 receptor binding IC50) amounted to 47 nM. Moreover, the Ki in data set [1] (0.1 nM 125I-melatonin, 30 min, read-out: MT-3 receptor binding KI) came to 46 nM. Also, the inhibition at 10 µM in data set [1] (read-out: MT-3 receptor binding % inhibition by 10 μM) was determined as 100%. For the same compound, in data set [2] (30-35 min and 60-65 min after treatment), the “effect on motor activity and rearing” value was “did not change significantly the motor activity and rearing”. Further, the “motor activity (horizontal movement) changes (%) 30 min” value in data set [2] (30 min, vs vehicle) is given as −26.5%. The “motor activity (horizontal movement) 30 min Means ± SE” value in data set [2] (30 min after treatment, 5 min measurement) turned out to be 316.1 ± 45.5. Besides, in data set [2] (60 min, vs vehicle), the “motor activity (horizontal movement) changes (%) 60 min” value was −19.0%. The “motor activity (horizontal movement) 60 min Means ± SE” value in data set [2] (60 min after treatment, 5 min measurement) amounted to 256.1 ± 27.3. For the same compound, the “effect on glucose transport in FFA-treated adipocytes” value in data set [3] (FFA-impaired insulin signaling) is given as “improved glucose transport”. The “2-[3H]-deoxy-d-glucose uptake (cpm)” value in data set [3] (Insulin 20 nM + FFA 300 μM (3 h) + substance 10 nM) turned out to be 1489 cpm. Further, the “effect on cell viability without glutamate” value in data set [4] is reported as “had no effect on the cell viability”.
